# Read-outs that look alike come from different tables or passages of the source.
# Key:
# [1] = system: aldosterone effect on log([Na+]urinary×10/[K+]urinary); assay: Anti-aldosterone activity model (Hofman): urinary log([Na+]x10/[K+]) in dogs given aldosterone; format: in vivo, dog; conditions: for inhibition of the effect of aldosterone on log ([Na+]urinary×10/[K+]urinary): first 6 hours and 12 hours after dosage
# Experimental: The model for assessing the anti-aldosterone activity as described by Hofman L. M et al. (1975, The Journal of Pharmacology and Experimental Therapeutics. 194, 450-456) was used. […] A preliminary study was performed in order to determining the ED80 value for the natriuretic effect of aldosterone on its own. […] An elimination period of at least 48 hours was left between each administration.
# The dogs described above were allocated to different treatment groups (A, B, C, D, and E) and a rest period was left between treatments.
# A negative control group A only received the pharmaceutical excipient. The positive control group B only received 3 μg/kg of aldosterone. […] 200 g food was then given immediately after treatment.
# The tubes were centrifuged rapidly at 1500 rpm for 10 minutes (at a temperature of +4° C.±2° C.), and the plasma was distributed in two propylene tubes (1.2 mL). The samples were frozen and kept in the dark at approx. −80° C. On the day of the fest, the bladders of the animals were emptied by catherisation, then 6 and 24 hours after treatment. Also, the urine was collected during the time periods ranging from T0-T6h; T6h-T12h and T12h-T24h.
# The sodium and potassium contents in urines were determined using […]. […] According to this method 500 μL plasma were mixed with ethyl acetate (80/20,V/V) as solvents. […] The compounds and the internal standard (i.e. methyl-testosterone) were separated on a Kromasil C18 column. The quantification levels were 10 μg/L for all compounds within +/−14% variation.
# E0, Elog ({Na+)urinary×10/[K+}) max dose and ED50 were obtained by nonlinear regression, and n is the Hill coefficient describing the dose effect relation.
# [2] = Pharmacokinetic study with 22-14C spironolactone, monkey; format: in vivo; conditions: monkeys, after 4 hour oral administration
# [3] = Plasmatic potassium (kaliemia) measurements during the clinical studies; format: in vivo, dog
# Experimental: The plasmatic potassium concentrations (mmol/L) were measured during the treatments. […] Only sporadic case of low or moderate hyperkaliemia could be observed and these events were transient. Indeed, these hyperkaliemia events could only be observed a couple of times during examinations, and some of them were present on day D1, before the beginning of the treatment.
# [4] = Pharmacokinetic study with 22-14C spironolactone, dog; format: in vivo; conditions: dogs, after 4 hour oral administration
# [5] = system: human patient; conditions: cited from earlier work
# [6] = Pharmacokinetic study with 22-14C spironolactone, rat; format: in vivo; conditions: rats, after 4 hour oral administration
# [7] = system: patients affected by severe heart failure; conditions: 25 mg spironolactone with CEI, ansa diuretics, sometimes digoxin; 822 patients; cited from earlier work
# [8] = system: dogs affected by heart failure; assay: Multicentre randomised double-blind placebo-controlled clinical studies in dogs affected by heart failure; format: in vivo, dog; conditions: group of dogs on spironolactone
# Experimental: Multicentre, randomised, double-blind placebo-controlled clinical studies were conducted.
# For gauging the effects of the treatment, both groups were examined five times, i.e., on the first day of treatment (D1), then on the 84th day (D84), […], 252nd day (D252) and 336th day (D336). This examination consisted of a clinical examination of the dogs, urine and blood analyses, and a radiograph. Moreover, an echocardiograph was taken on days D1, D168 and D336.
# Also, the effects of the treatment were assessed on the symptoms such as cough and mobility, as well as on the prevention of symptoms such as dyspnoea, pulmonary edema, and tolerance to effort.
structure (smiles),measurement,setting,value
C[C@]12CCC(=O)C=C1CC[C@@H]1[C@@H]2[C@@H](O)C[C@]2(C=O)[C@@H](C(=O)CO)CC[C@@H]12 [aldosterone],E0 (control group),"[1]; basic effect after aldosterone on its own (positive control), 0 to 6 hours",0.527
"CC(=O)S[C@@H]1CC2=CC(=O)CC[C@]2(C)[C@H]2CC[C@@]3(C)[C@@H](CC[C@@]34CCC(=O)O4)[C@H]12 [spironolactone, 7α-acetylthio-3-oxo-17α-pregn-4-ene-21,17-carbolactone]",plasma radioactivity percentage,[2],33%
same,variation in kaliemia,"[3]; 2 mg/kg/day, dogs",did not cause any variation in kaliemia or only low transient variations in kaliemia
same,"Low and transient hyperkaliemia (5.9 to 6.4 mmol/L), cases",[3]; 2-month clinical study (4 analyses),3
same,"Low and transient hyperkaliemia (5.9 to 6.4 mmol/L), cases",[3]; 3-month clinical study (6 analyses),5
same,"Low and transient hyperkaliemia (5.9 to 6.4 mmol/L), cases",[3]; 12-month clinical study (5 analyses),3
same,progression of average plasmatic potassium (kaliemia),"[3]; FIG. 9, spironolactone 2 mg/kg/day + CEI",stable kaliemia
same,plasma radioactivity percentage,[4],76%
same,Therapeutic effect in human,[5]; 12.5 mg/day,Significant reduction in morbidity/
same,Therapeutic effect in human,[5]; 25 mg/day,Significant reduction in morbidity/
same,Therapeutic effect in human,[5]; 50 mg/day,Significant reduction in morbidity/
same,Therapeutic effect in human,[5]; 75 mg/day,Significant reduction in morbidity/
same,plasma radioactivity percentage,[6],66%
same,natriuretic responses,[1]; 0.8 mg/kg,no effect on certain dogs
same,natriuretic responses,[1]; 2 mg/kg,completely reversed
same,inhibition of the effect of aldosterone on log ([Na+]urinary×10/[K+]urinary),[1]; 2 mg/kg,complete reversal of the effect
same,natriuretic responses,[1]; 8 mg/kg,other increases in the elimination of Na were observed
same,inhibition of the effect of aldosterone on log ([Na+]urinary×10/[K+]urinary),[1]; 8 mg/kg,complete reversal of the effect
same,E(0.8 mg/kg)−E0,[1]; dose 0.8 mg/kg,0.3233
same,restoring of the effect,[1]; dose 0.8 mg/kg,57%
same,E(2 mg/kg),[1]; dose approx. 2 mg/kg,0.4933
same,restoring of the effect,[1]; dose approx. 2 mg/kg,88%
same,"log ([Na+]urinary×10/[K+]urinary), average","[1]; urine collected 0 to 6 hours after administration of spironolactone, from 0.70±0.22",1.14±0.18
same,"dead in the spironolactone group, percentage",[7],35%
same,number of dead in the spironolactone group,[7],284
same,clinical symptoms,[8],improved symptoms such as cough and mobility

# Source: patent US20200016155A1, “COMPOSITIONS AND TREATMENT OF HEART DEFICIENCY IN NON-HUMAN ANIMALS” (CEVA SANTE ANIMALE, priority 2007, published 2020)
